The values below come from patent US20240409585A1, “MACROCYCLIC IMMUNOMODULATORS” (priority 2021, published 2024).

Molecules are shown by their SMILES. Bridge positions count the residues as written; N and C are the ends. Square brackets hold non-standard residues; d marks the D form. Peptide text beside a SMILES is read from it. * marks the point of attachment. ξ: configuration not given here. Phe(4-COOH) = N[C@@H](Cc1ccc(C(=O)O)cc1)C(=O)O; Bip = N[C@@H](Cc1ccc(-c2ccccc2)cc1)C(=O)O; Phe(3-Me) = Cc1cccc(C[C@H](N)C(=O)O)c1; Val(3-OH) = CC(C)(O)[C@H](N)C(=O)O; 4Pal = N[C@@H](Cc1ccncc1)C(=O)O; Cha = N[C@@H](CC1CCCCC1)C(=O)O; Cit = NC(=O)NCCC[C@H](N)C(=O)O; Ile(3ξ) = CCC(C)[C@H](N)C(=O)O; Thr(3ξ) = CC(O)[C@H](N)C(=O)O; NEtAla = CCN[C@@H](C)C(=O)O; Carboxymethyl = O=C(O)C*; NMeA = CN[C@@H](C)C(=O)O; Dab = NCC[C@H](N)C(=O)O; Dap = NC[C@H](N)C(=O)O

T1 sequence (Q15116 25-288): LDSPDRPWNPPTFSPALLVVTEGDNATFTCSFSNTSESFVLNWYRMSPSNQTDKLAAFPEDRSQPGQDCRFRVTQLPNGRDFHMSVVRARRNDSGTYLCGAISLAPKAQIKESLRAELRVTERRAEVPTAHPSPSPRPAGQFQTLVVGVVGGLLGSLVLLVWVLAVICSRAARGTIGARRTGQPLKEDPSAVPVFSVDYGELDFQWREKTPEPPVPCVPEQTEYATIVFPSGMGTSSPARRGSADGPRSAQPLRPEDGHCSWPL

One test has as its target T1, PE-labeled human PD-L1-Ig binding to Jurkat cell line over-expressing human PD-1 (Jurkat-PD-1) (Homo sapiens, UniProt Q15116).
T1 construct: expressed in transfected cells; host or cells: Jurkat
As to the kind of experiment: Jurkat-PD-1 Cell Binding High-Content Screening Assay (CBA): Method 1. To be noted: Jurkat HPDL1 PD1 IC50 (uM) (Method 1).
The IC50 is the point on the concentration scale where inhibition reaches its midpoint. `CCC(C)[C@@H]1NC(=O)[C@H](Cc2ccc(-c3ccccc3)cc2)NC(=O)[C@H](C(C)C)NC(=O)[C@H](Cc2cccc(C)c2)NC(=O)[C@H](CC(=O)O)NC(=O)[C@H](Cc2cccc(C)c2)NC(=O)[C@H](Cc2ccncc2)NC(=O)CSC[C@@H](C(=O)N[C@@H](CO)C(=O)O)NC(=O)[C@H](CO)NC(=O)[C@H](C(C)C)NC(=O)[C@H](CC2CCCCC2)NC(=O)[C@H](CCN)NC(=O)[C@@H](CC(C)C)NC(=O)[C@H](C)N(C)C1=O` (stereo partly drawn) [Compound 2233] ({CH2CO}-[4Pal][Phe(3-Me)]D[Phe(3-Me)]V[Bip][Ile(3ξ)][NMeA][dL][Dab][Cha]VSCS-OH; thioether N-14) had an IC50 of 0.02 µM.

The same test, now with this note: Jurkat-hPD-1 cells, PE-labeled PD-L1-Ig 20 nM final; read-out: Jurkat HPDL1 PD1 IC50 (uM) (Method 1).
In the case of `CC(C)C[C@@H]1NC(=O)[C@H](CCN)NC(=O)[C@@H](CC(C)C)NC(=O)[C@H](C)N(C)C(=O)[C@H](Cc2cnc[nH]2)NC(=O)[C@H](Cc2ccc(-c3ccccc3)cc2)NC(=O)[C@H](C(C)C)NC(=O)[C@H](Cc2c[nH]c3ccccc23)NC(=O)[C@H](CC(=O)O)NC(=O)[C@H](Cc2ccc(OCC(=O)O)cc2)NC(=O)[C@H](CN)NC(=O)CSC[C@@H](C(=O)N[C@@H](C)C(N)=O)NC(=O)[C@H]([C@@H](C)O)NC(=O)[C@H](C(C)C)NC1=O` [Compound 1438] ({CH2CO}-[Dap]Y(Carboxymethyl)DWV[Bip]H[NMeA][dL][Dab]LVTCA-NH2; thioether N-14), the IC50 was found to be 0.07 µM.
On the same count and under the same terms, as for `CC(C)C[C@@H]1NC(=O)[C@H](CCN)NC(=O)[C@@H](CC(C)C)NC(=O)[C@H](C)N(C)C(=O)[C@H](CCC(=O)O)NC(=O)[C@H](Cc2ccc(-c3ccccc3)cc2)NC(=O)[C@H](C(C)C)NC(=O)[C@H](Cc2c[nH]c3ccccc23)NC(=O)[C@H](CC(=O)O)NC(=O)[C@H](Cc2ccc(OCC(=O)O)cc2)NC(=O)[C@H](Cc2ccncc2)NC(=O)CSC[C@@H](C(=O)N[C@@H](C)C(N)=O)NC(=O)[C@H](CO)NC(=O)[C@H](C(C)C)NC1=O` [Compound 1575] ({CH2CO}-[4Pal]Y(Carboxymethyl)DWV[Bip]E[NMeA][dL][Dab]LVSCA-NH2; thioether N-14), the figure is 0.05 µM; as for `CCC(C)[C@@H]1NC(=O)[C@H](Cc2ccc(-c3ccccc3)cc2)NC(=O)[C@H](CC(C)C)NC(=O)[C@H](Cc2c[nH]c3ccccc23)NC(=O)[C@H](CC(=O)O)NC(=O)[C@H](Cc2ccc(C(=O)O)cc2)NC(=O)[C@H](Cc2ccc(OCC(=O)O)cc2)NC(=O)CSC[C@@H](C(=O)N[C@@H](CC(N)=O)C(N)=O)NC(=O)[C@H](CO)NC(=O)[C@H](C(C)C)NC(=O)[C@H](CC2CCCCC2)NC(=O)[C@H](CCN)NC(=O)[C@@H](CC(C)C)NC(=O)[C@H](C)N(C)C1=O` (stereo partly drawn) [Compound 1923] ({CH2CO}-Y(Carboxymethyl)[Phe(4-COOH)]DWL[Bip][Ile(3ξ)][NMeA][dL][Dab][Cha]VSCN-NH2; thioether N-14), 0.02 µM.
Still for that read-out and setting: as for `CCN1C(=O)[C@H](CCCNC(=N)N)NC(=O)[C@H](Cc2ccc(-c3ccccc3)cc2)NC(=O)[C@H](C(C)C)NC(=O)[C@H](Cc2c[nH]c3ccccc23)NC(=O)[C@H](CC(=O)O)NC(=O)[C@H](Cc2ccc(O)cc2)NC(=O)[C@H](CC(N)=O)NC(=O)CSC[C@@H](C(=O)N[C@@H](C)C(N)=O)NC(=O)[C@H]([C@@H](C)O)NC(=O)[C@H](C(C)C)NC(=O)[C@H](CC(C)C)NC(=O)[C@H](CCN)NC(=O)[C@@H](CC(C)C)NC(=O)[C@@H]1C` [Compound 1207] ({CH2CO}-NYDWV[Bip]R[NEtAla][dL][Dab]LVTCA-NH2; thioether N-14), the figure is 0.07 µM; as for `Cc1cccc(C[C@@H]2NC(=O)[C@H](CC(=O)O)NC(=O)[C@H](Cc3ccc(OCC(=O)O)cc3)NC(=O)[C@H](C(C)C)NC(=O)CSC[C@@H](C(=O)N[C@@H](CN)C(N)=O)NC(=O)[C@H](C(C)O)NC(=O)[C@H](C(C)(C)O)NC(=O)[C@H](CC3CCCCC3)NC(=O)[C@H](CCN)NC(=O)[C@@H](CC(C)C)NC(=O)[C@H](C)N(C)C(=O)[C@H](CCCNC(N)=O)NC(=O)[C@H](Cc3ccc(-c4ccccc4)cc3)NC(=O)[C@H](Cc3ccc(OCC(=O)O)cc3)NC2=O)c1` (stereo partly drawn) [Compound 2167] ({CH2CO}-VY(Carboxymethyl)D[Phe(3-Me)]Y(Carboxymethyl)[Bip][Cit][NMeA][dL][Dab][Cha][Val(3-OH)][Thr(3ξ)]C[Dap]-NH2; thioether N-14), 0.05 µM.
